From patent publication US20020146823A1, “Method for promoting hematopoietic and mesenchymal cell proliferation and differentiation” (The University of Southern California, priority 1997, published 2002) come the findings set out here.

The subject of test [1] is rat peritoneal macrophages. Kind of test: Respiratory burst (hydrogen peroxide generation) in rat peritoneal macrophages. The class given is cell-based. Particulars: alone and in response to PMA; 4 hours exposure. On the procedure: The respiratory burst of leukocytes (macrophages and polymorphonuclear neutrophils) is one component of the mediator system used to kill bacteria. As with phagocytosis, the level of this respiratory burst activity in resident macrophages is low. […] Studies were conducted to assess the effect of in vitro exposure of murine or rat peritoneal macrophages and human peripheral blood mononuclear cells (PBMC) to various concentrations of AII on the capacity to generate hydrogen peroxide via the respiratory burst system. For the human studies, five different donors were examined.
The murine or rat peritoneal cells were harvested by lavage with 5-15 ml of cold PBS with 0.5% bovine serum albumin. The human PBMC were harvested by venipuncture from normal human volunteers and isolated from peripheral blood by Ficoll Hypaque density centrifugation. After isolation, the cells were resuspended at 1×10^6 cells/ml and placed at 100 μl per well into 96 well plates. The cells were incubated with various concentrations of AII or AII analogues and fragments for 4 hours at 37° C. The cells were then preloaded with a fluorescent probe for hydrogen peroxide, 2,7 dichlorofluorescein acetate, which is nonfluorescent in the absence of hydrogen peroxide. […] One hour after stimulation the level of fluorescence produced was measured on a Cytofluor 2350 multiwell fluorometer.

In test [2] the test system is enriched HPC from C57B1/6 mice. In words: Murine HPC colony formation in semi-solid culture. The class given is cell-based. On the procedure:
HPC were harvested from C57B1/6 mice by immunomagnetic affinity chromatography and placed in semi-solid cultures with optimal growth medium. At various times after initiation of culture, the formation of colonies and the size of the colonies (number of cells/colony) were assessed microscopically.
Female C57B1/6 mice were purchased from Simonson and used as a source of bone marrow cells in this study. The bone marrow was harvested, either from untreated mice or from mice injected with 5-fluorouracil (5-FU) (3 mg/mouse; approximately 150 mg/kg) in the tail vein 48 hours before harvest, from the femur and tibia of mice by flushing with phosphate buffered saline (PBS), pH 7.4, containing 2% fetal bovine serum (FBS) with a 21-gauge needle. The eluant from the flushing was centrifuged and the pellet was resuspended at 4×10^7 nucleated cells/ml in PBS containing PBS containing 2% FBS and 5% normal rat serum.
The reagents for immunomagnetic labeling were purchased from Stem Cell Technologies, Inc. (Vancouver, BC). […]

Regarding “Asp-Arg-Val-Tyr-Ile-His-Pro-Phe (DRVYIHPF; printed: Asp-Arg-Val-Tyr-Ile-His-Pro-Phe) [AII, octapeptide present in humans and other species; known pressor agent, commercially available]”, the “ability of leukocytes to generate hydrogen peroxide” value in test [1] was “increased the ability of leukocytes to generate hydrogen peroxide both alone and in response to stimulation with PMA”. The HPC colony size entry in test [2] (0 to 100 μg/ml, normal and 5-FU treated) was “increases proportionately with exposure to increased concentrations of AII”. The macroscopic colonies in test [2] (day 14, enriched HPC from untreated (normal) mice, 100 μg/ml) was 100.
